From publication PMC4552603 (Pharmacology, biochemistry, and behavior, 2015)
Counter-ions that a name gives are not always drawn.

Key:
[1] = tested on: rats; assay: Conditioned place preference; format: in vivo, rat; details: morphine 1 mg/kg s.c.; for mean change from baseline (time in drug-paired compartment): rats
[2] = tested on: rats; details: rat, in vivo

## CN1CC[C@]23c4c5ccc(O)c4O[C@H]2[C@@H](O)C=C[C@H]3[C@H]1C5 [Morphine, Morphine sulfate]
[1]; vs saline, two-way ANOVA p = 0.0013
  place preference: significant place preference
[1]; test session one
  mean change from baseline (time in drug-paired compartment): +83.4 sec
[1]; test session two
  mean change from baseline (time in drug-paired compartment): +96.62 sec
[2]
  responding (drug infusions) vs saline: significantly greater responding than saline
